{"source": "ChEMBL document CHEMBL1143675", "about": "“Triterpenoids from Schisandra rubriflora” (J Nat Prod, 2007)", "key": {"[1]": {"test": "Cytotoxicity against C8166 cells after 72 hrs by MTT method", "type": "cell-based", "conditions": "human"}, "[2]": {"system": "Human immunodeficiency virus 1", "test": "Antiviral activity against HIV1 3B in C8166 cells", "type": "functional, organism-based", "conditions": "Human immunodeficiency virus 1, 3B"}}}
{"compound": "COC(=O)C[C@H]1OC(C)(C)[C@@H]2C[C@H]3O[C@@]12C[C@]12CC[C@]4(C)C(=O)[C@@H](C)[C@@H]5[C@H]6OC(=O)[C@@H](C)[C@H]6O[C@@](O1)(C(=O)[C@H]32)[C@@H]54", "note": "[RUBRIFLORIN A]", "values": [{"measurement": "CC50 at 72 h", "setting": "[1]", "result": 89.1, "unit": "µg/mL"}, {"measurement": "EC50", "setting": "[2]", "result": 10, "unit": "µg/mL"}]}
{"compound": "COC(=O)C[C@H]1OC(C)(C)C2=C1C[C@]13CC[C@]4(C)C(=O)[C@@H](C)[C@@H]5[C@H]6OC(=O)[C@@H](C)[C@H]6O[C@@](O1)(C(=O)C3=CC2=O)[C@@H]54", "note": "[RUBRIFLORIN B]", "values": [{"measurement": "CC50 at 72 h", "setting": "[1]", "result": 100, "unit": "µg/mL"}, {"measurement": "EC50", "setting": "[2]", "result": 16.2, "unit": "µg/mL"}]}
{"compound": "CCOC(=O)C[C@H]1OC(C)(C)C2=C1C[C@]13CC[C@]4(C)C(=O)[C@@H](C)[C@@H]5[C@H]6OC(=O)[C@@H](C)[C@H]6O[C@@](O1)(C(=O)C3=CC2=O)[C@@H]54", "note": "[RUBRIFLORIN C]", "values": [{"measurement": "CC50 at 72 h", "setting": "[1]", "result": "> 200", "unit": "µg/mL"}, {"measurement": "EC50", "setting": "[2]", "result": 81.3, "unit": "µg/mL"}]}
{"compound": "Cc1cn([C@H]2C[C@H](N=[N+]=[N-])[C@@H](CO)O2)c(=O)[nH]c1=O", "note": "[ZIDOVUDINE]", "values": [{"measurement": "CC50 at 72 h", "setting": "[1]", "result": "> 200", "unit": "µg/mL"}, {"measurement": "EC50", "setting": "[2]", "result": 0.0043, "unit": "µg/mL"}]}
